In patent US6900200B2, “Tricyclic hydroxy carboxamides and derivatives thereof tocolytic oxytocin receptor antagonists” (Wyeth, priority 2001, dated 2005):

Biological target: T1, human vasopressin V2 receptor subtype (Homo sapiens, UniProt P30518)
T1 construct: host or cells: CHO cells, pZeoSV vector
Experiment: Vasopressin binding in CHO cell membranes expressing human vasopressin V2 subtype receptors ([3H]arginine vasopressin radioligand binding)
Details: for IC50: value printed in parentheses; for inhibition at 0.1 µM: @ 100 nM
Source text: Vasopressin Binding in Chinese Hamster Ovary Cell Membranes Expressing Human Vasopressin V2 Subtype Receptors
Chinese Hamster Ovary (CHO) cells stably transfected with the human V2 subtype receptors were obtained from M. Thibonnier, Case Western Reserve University School of Medicine, Cleveland, Ohio.
A. Passaging and Amplification of Cells
CHO cells transfected with the human vasopressin V2 subtype receptors obtained from M. Thibonnier (pZeoSV vector) are allowed to grow to confluency (approx. >90%) in T-150 flasks under sterile conditions, in a cell culture medium ofF-12 Nutrient Mixture (HAM) with L-glutamine (Gibco Cat. #11765-054) containing 15 mM HEPES (Gibco Cat. #15630-080), 1% antibiotic/antimycotic (add 5 mL 100×, Gibco Cat. #15240-062 per 500 mL F-12), 250 μg/mL Zeocin (add 1.25 mL of 100 mg/mL Invitrogen R-250-01 per 500 mL F-1 2) and 10% Fetal Bovine Serum (Qualified, heat inactivated, Gibco Cat. #16140-063). The medium is removed by aspiration and the cells washed with 10 mL of Hank's Balanced Salt solution (Gibco Cat. #14175-095). The salt solution is removed by aspiration and the cells trypsinized with 5 mL of trypsin-EDTA (0.05% trypsin, 0.53 mM EDTA-4Na, Gibco Cat. #25300-070) for 1 min. The trypsin is removed by aspiration and the cells dislodged by tapping. Cell Culture medium (e.g. 30 mL for 1:30 split) is immediately added and mixed well to inactivate trypsin. 1 mL of detached cells is added to new culture flasks containing fresh Cell Culture medium (e.g. into 25 mL per T-150 flask), and mixed gently. The cells are incubated at 37° C. in 5% CO2. The medium is changed at 3 to 4 day interval (or as appropriate). The cells grow to confluency (approx. >75%-95%) within 7-8 days. All steps are done under sterile conditions.
The cells are washed twice gently with Hank's Balanced Salt solution (e.g. use 10 mL per T-150 flask). The excess solution is removed and the cells bathed for 15-30 min. in an enzyme-free Cell Dissociation Buffer (e.g. use 8 mL Hank's Based, Gibco Cat. # 13150-016 per T-150 flask) until cells are loosened. The contents are transferred to centrifuge tubes (50 mL) kept in ice bath. All subsequent steps are done at 4° C. The tubes are centrifuged at 300×g for 15 min (1380 rpm on SORVAL, Model RT6000D, using the rotor for 50 mL tubes). The supernatant is discarded and the cells suspended in homogenizing buffer (10 mM Tris-HCl containing 0.25 M sucrose and 1 mM EDTA, pH 7.4) ensuring that the volume of the buffer is about ten times the volume of the cell pellet. The cells are pooled into a centrifuge tube (50 mL) and homogenized with Polytron at setting 6 for 10 sec. The homogenate is transferred into a Potter-Elvjehm homogenizer and homogenized with 3 strokes. The homogenate is centrifuged at 1500×g for 60 min at 4° C. (3100 rpm using SORVAL, model RT6000D, using the rotor for 50 mL tubes). The pellet is discarded. The supernatant is centrifuged at 100,000×g for 60 min. at 4° C. (Beckman L8-80M ultracentrifuge; spin at 37,500 rpm with rotor type 70 Ti for 50 mL tubes; 38,000 rpm with type 80Ti for 15 mL tubes; or 35,800 rpm with rotor type 45Ti). The supernantant is discarded and the pellet suspended in 3 to 4 mL of Tris buffer (50 mM TRIS—HCl, pH 7.4). The protein content is estimated by the Bradford or Lowry method. The volume of the membrane suspension is adjusted with the membrane buffer (50 mM Tris-HCl containing 0.1% BSA and 0.1 mM PMSF) to give 3.0 mg/mL (or as appropriate) of protein. The membranes are aliquoted and stored at −70. ° C.
C. Radioligand Binding Assay
In wells of a 96-well format microtiter plate, is added 90, 110 or 130 μL (to make up a final volume of 200 μL) of assay buffer containing 50 mM of Tris-HCl (pH 7.4), […], 1 mg % aprotinin, 1 mg % leupeptin, 2 mg % 1,10-phenanthroline, 10 mg % trypsin inhibitor, and 0.1 mM PMSF. The inhibitors are added on the day of the experiment. […]

T1 sequence (P30518 whole entry): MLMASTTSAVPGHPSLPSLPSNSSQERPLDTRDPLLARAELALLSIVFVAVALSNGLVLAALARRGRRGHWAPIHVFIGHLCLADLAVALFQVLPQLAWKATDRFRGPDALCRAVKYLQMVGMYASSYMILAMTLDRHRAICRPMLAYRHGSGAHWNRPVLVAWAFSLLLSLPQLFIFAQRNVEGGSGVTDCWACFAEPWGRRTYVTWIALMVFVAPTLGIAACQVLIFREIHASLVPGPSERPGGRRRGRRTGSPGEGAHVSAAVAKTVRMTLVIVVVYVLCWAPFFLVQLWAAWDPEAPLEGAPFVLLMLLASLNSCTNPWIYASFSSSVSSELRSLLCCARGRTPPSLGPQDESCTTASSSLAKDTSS

## COc1ccccc1-c1ccc(C(=O)N2Cc3ccc(C(=O)N(C)C[C@H](O)[C@@H](O)[C@H](O)[C@H](O)CO)n3Cc3ccccc32)cc1C [Example 17, 10-[(2′-Methoxy-2-methyl-[1,1′-biphenyl]-4-yl)carbonyl]-10,11-dihydro-5H-pyrrolo[2,1-c][1,4]benzodiazepine-3-carboxylic acid methyl-[(2S,3R,4R, 5R)-2,3,4,5,6-pentahydroxy-hexyl)-amide]
  IC50: 144 nM

## COc1cc2c(cc1OC)N(C(=O)c1ccc(-c3ccccc3C(F)(F)F)c(C)c1)Cc1ccc(C(=O)N(C)CC(O)CO)n1C2 (centres unmarked) [Example 18, N-(2,3-Dihydroxypropyl)-7,8-dimethoxy-N-methyl-10-{[2-methyl-2′-trifluoromethyl-[1,1′-biphenyl]-4-yl]carbonyl}-10,11-dihydro-5H-pyrrolo[2,1-c][1,4]benzodiazepine-3-carboxamide]
  inhibition at 0.1 µM: -5%

## COc1cc2c(cc1OC)N(C(=O)c1ccc(-c3ccccc3C(F)(F)F)c(C)c1)Cc1ccc(C(=O)N(CCO)CCO)n1C2 [Example 19, N,N-Bis(2-Hydroxyethyl)-7,8-dimethoxy-10-{[2-methyl-2′-trifluoromethyl-[1,1′-biphenyl]-4-yl]carbonyl}-10,11-dihydro-5H-pyrrolo[2,1-c][1,4]benzodiazepine-3-carboxamide]
  inhibition at 0.1 µM: 3%

## COc1cc(-c2ccccc2C(F)(F)F)c(Cl)cc1C(=O)N1Cc2ccc(C(=O)N(C)C[C@H](O)[C@@H](O)[C@H](O)[C@H](O)CO)n2Cc2ccccc21 [Example 20, 10-{[6-Chloro-3-methoxy-2′-trifluoromethyl-[1,1′-biphenyl]-4-yl]carbonyl}-N-methyl-N-[(2S,3R,4R,5R)-2,3,4,5,6-pentahydroxyhexyl]-10,11-dihydro-5H-pyrrolo[2,1-c][1,4]benzodiazepine-3-carboxamide]
  IC50: 227 nM

## COc1cc(C(=O)N2Cc3ccc(C(=O)N(C)CC(O)CO)n3Cc3ccccc32)ccc1-c1ccccc1C(F)(F)F (centres unmarked) [Example 21, N-(2,3-Dihydroxypropyl)-10-{[2-methoxy-2′-trifluoromethyl-[1,1′-biphenyl]-4-yl]carbonyl}-N-methyl-10,11-dihydro-5H-pyrrolo[2,1-c][1,4]benzodiazepine-3-carboxamide]
  IC50: 311 nM

## COc1cc(C(=O)N2Cc3ccc(C(=O)N(C)CC(O)CN(C)C)n3Cc3ccccc32)ccc1-c1ccccc1C(F)(F)F (centres unmarked) [Example 22, N-[(3-Dimethylamino)-2-hydroxy-propyl]-10-{[2-methoxy-2′-trifluoromethyl-[1,1′-biphenyl]-4-yl]carbonyl}-N-methyl-10,11-dihydro-5H-pyrrolo[2,1-c][1,4]benzodiazepine-3-carboxamide]
  IC50: 1140 nM

## O=C(c1ccc2n1Cc1ccccc1N(C(=O)c1ccc(-c3cccc4ccccc34)cc1Cl)C2)N1CCN(CCO)CC1 [Example 25, 2-{4-[10-{[2-Chloro-4-(naphthalen-1-yl)phenyl]carbonyl}-(10,11-dihydro-5H-pyrrolo[2,1-c][1,4]benzodiazepin-3-yl)carbonyl]piperazine-1-yl}-1-hydroxyethane]
  inhibition at 0.1 µM: 21%

## Cc1ccc(-c2ccc(C(=O)N3Cc4ccc(C(=O)N(C)CC(O)CO)n4Cc4ccccc43)cc2)c2ccccc12 (centres unmarked) [Example 26, 10-{[4-(4-Methyl-naphthalen-1-yl)phenyl]carbonyl}-10,11-dihydro-5H-pyrrolo[2,1-c][1,4]benzodiazepine-3-carboxylic acid (2,3-dihydroxy-propyl)-N-methylamide]
  IC50: 11.3 nM

## COc1cc2c(cc1OC)N(C(=O)c1ccc(-c3ccccc3OC)c(C)c1)Cc1ccc(C(=O)N(C)C[C@H](O)[C@@H](O)[C@H](O)[C@H](O)CO)n1C2 [Example 37, 7,8-Dimethoxy-10-[(2′-methoxy-2-methyl-[1,1′-biphenyl]-4-yl)carbonyl]-10,11-dihydro-5H-pyrrolo[2,1-c][1,4]benzodiazepine-3-carboxylic acid methyl-[(2S, 3R, 4R, 5R)-2,3,4,5,6-pentahydroxy-hexyl)-amide]
  inhibition at 0.1 µM: 7%

## COc1cc(-c2ccccc2C)c(Cl)cc1C(=O)N1Cc2ccc(C(=O)N3CCN(CCO)CC3)n2Cc2ccccc21 [Example 39, {10-[(6-Chloro-3-methoxy-2′-methyl[1,1′-biphenyl]-4-yl)carbonyl]-10,11-dihydro-5H-pyrrolo[2,1-c][1,4]benzodiazepin-3-yl}[4-(2-hydroxyethyl)-1-piperazinyl]methanone]
  IC50: 383 nM

## COc1ccccc1-c1ccc(C(=O)N2Cc3ccc(C(=O)N4CCN(CCO)CC4)n3Cc3ccccc32)cc1C [Example 40, [4-(2-Hydroxyethyl)-1-piperazinyl]{10-[(2′-methoxy-2-methyl[1,1′-biphenyl]-4yl)carbonyl]-10,11-dihydro-5H-pyrrolo[2,1-c][1,4]benzodiazepin-3-yl}methanone]
  inhibition at 0.1 µM: 25%

## COc1cc(C(=O)N2Cc3ccc(C(=O)N4CCN(CCO)CC4)n3Cc3ccccc32)ccc1-c1cccc2ccccc12 [Example 41, [4-(2-Hydroxyethyl)-1-piperazinyl]{10-[3-methoxy-4-(1-naphthyl)benzoyl]-10,11-dihydro-5H-pyrrolo[2,1-c][1,4]benzodiazepin-3-yl}methanone]
  inhibition at 0.1 µM: 35%

## COc1cc(C(=O)N2Cc3ccc(C(=O)N4CCN(CCO)CC4)n3Cc3ccccc32)ccc1-c1ccccc1C [Example 42, [4-(2-Hydroxyethyl)-1-piperazinyl]{10-[(2-methoxy-2′-methyl[1,1′-biphenyl]-4yl)carbonyl]-10,11-dihydro-5H-pyrrolo[2,1-c][1,4]benzodiazepin-3-yl}methanone]
  inhibition at 0.1 µM: 27%

## COc1ccccc1-c1ccc(C(=O)N2Cc3ccc(C(=O)N4CCN(CCO)CC4)n3Cc3ccccc32)cc1OC [Example 43, {10-[(2,2′-Dimethoxy[1,1′-biphenyl]-4-yl)carbonyl]-10,11-dihydro-5H-pyrrolo[2,1-c][1,4]benzodiazepin-3-yl}[4-(2-hydroxyethyl)-1-piperazinyl]methanone]
  inhibition at 0.1 µM: 27%

## COc1cccc(-c2ccc(C(=O)N3Cc4ccc(C(=O)N5CCN(CCO)CC5)n4Cc4ccccc43)cc2C)c1 [Example 44, [4-(2-Hydroxyethyl)-1-piperazinyl]{10-[(3′-methoxy-2-methyl[1,1′-biphenyl]-4yl)carbonyl]-10,11-dihydro-5H-pyrrolo[2,1-c][1,4]benzodiazepin-3-yl}methanone]
  inhibition at 0.1 µM: 13%

## Cc1ccccc1-c1ccc(C(=O)N2Cc3ccc(C(=O)N4CCN(CCO)CC4)n3Cc3ccccc32)cc1 [Example 45, [4-(2-Hydroxyethyl)-1-piperazinyl]{10-[(2′-methyl[1,1′-biphenyl]-4-yl)carbonyl]-10,11-dihydro-5H-pyrrolo[2,1-c][1,4]benzodiazepin-3-yl}methanone]
  inhibition at 0.1 µM: 9%

## Cc1ccccc1-c1ccc(C(=O)N2Cc3ccc(C(=O)N4CCN(CCO)CC4)n3Cc3ccccc32)cc1C [Example 46, {10-[(2,2′-Dimethyl[1,1′-biphenyl]-4-yl)carbonyl]-10,11-dihydro-5H-pyrrolo[2,1-c][1,4]benzodiazepin-3-yl}[4-(2-hydroxyethyl)-1-piperazinyl]methanone]
  inhibition at 0.1 µM: 14%
